Measured values as given in US20070249623A1, “1-(Indole-6-Carbonyl-D-Phenylglycinyl)-4-(1-Methylpiperidin-4-Yl)Piperazine D-Tartrate” (Eli Lilly and Company Patent Division, priority 2004, published 2007).
Like-named read-outs stand apart in the source and are kept apart here.

What was measured:
[1] = equilibrium solubility; assay type: physicochemical; conditions: thermodynamic from solid, 25° C., measured as the free base
[2] = moisture sorption isotherm (vacuum microbalance); assay type: physicochemical; conditions: ambient temperature, once the dihydrate had been formed
Procedure: A moisture sorption isotherm of the D-tartrate crystals was also determined using a vacuum microbalance, with a 40° C. drying step prior to initial data collection. With the initial drying step, an initial 6% weight loss was observed, consistent with the removal of the waters of crystallization. As the relative humidity was increased, the sample resorbed water, with rehydration being completed when the relative humidity reached about 20%.

[3] = target: Factor Xa (Homo sapiens, UniProt P00742); conditions: as disclosed in WO 00/76971; cited from earlier work
[4] = solid form stability at high relative humidity and in aqueous suspension; assay type: physicochemical
From the text: Salts of 1-(indole-6-carbonyl-D-phenylglycinyl)-4-(1-methylpiperidin-4-yl)piperazine that form crystalline solids are disclosed in Examples 48a (hydrochloride salt) and 48b (difumarate salt) of WO 01/96323. […] Thus, the form disclosed in WO 02/100847 as Form 1 is obtained as thin needles. The thin needle morphology has disadvantages for formulation, however, because of, inter alia, clustering and low bulk density. […] The form disclosed in WO 02/100847 as Form 2 has the disadvantage, inter alia, that the particle size is very small, resulting in extremely slow filtration.

Sequence of Factor Xa (P00742 235-488 limits assumed): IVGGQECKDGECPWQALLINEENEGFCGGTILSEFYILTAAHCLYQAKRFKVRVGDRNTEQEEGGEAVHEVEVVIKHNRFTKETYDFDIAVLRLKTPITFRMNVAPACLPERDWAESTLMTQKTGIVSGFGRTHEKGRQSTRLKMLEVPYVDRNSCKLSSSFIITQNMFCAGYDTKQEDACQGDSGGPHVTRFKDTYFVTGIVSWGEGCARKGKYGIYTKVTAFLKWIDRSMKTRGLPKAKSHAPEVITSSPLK
Sequence of Factor Xa (P00742 41-179 partner limits assumed): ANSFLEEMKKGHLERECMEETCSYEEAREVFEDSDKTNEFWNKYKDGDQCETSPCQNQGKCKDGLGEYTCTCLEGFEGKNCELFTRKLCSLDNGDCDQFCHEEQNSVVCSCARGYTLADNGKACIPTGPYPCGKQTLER

Compound: CN1CCC(N2CCN(C(=O)[C@H](NC(=O)c3ccc4cc[nH]c4c3)c3ccccc3)CC2)CC1.O.O.O=C(O)C(O)C(O)C(=O)O [D-tartrate crystals, 1-(Indole-6-carbonyl-D-phenylglycinyl)-4-(1-methylpiperidin-4-yl)piperazine D-Tartrate Dihydrate]
- solubility thermodynamic ([1]; simulated gastric fluid, 0.01 M HCl, read-out: equilibrium solubility in 0.01 M HCl): ≥ 125 mg/mL
- solubility thermodynamic ([1]; water, read-out: equilibrium solubility in water): ≥ 126 mg/mL
- stability of the dihydrate to relative humidity [2]: remained stable between 5 and 95% relative humidity

Compound: CN1CCC(N2CCN(C(=O)[C@H](NC(=O)c3ccc4cc[nH]c4c3)c3ccccc3)CC2)CC1 [1-(indole-6-carbonyl-D-phenylglycinyl)-4-(1-methylpiperidin-4-yl)-piperazine]
- inhibition of Factor Xa [3]: potent and selective inhibitor of Factor Xa

Compound: CN1CCC(N2CCN(C(=O)[C@H](NC(=O)c3ccc4cc[nH]c4c3)c3ccccc3)CC2)CC1.O=C(O)/C=C/C(=O)O.O=C(O)/C=C/C(=O)O [Form 1]
- form conversion under extremely high relative humidity ([4]; above 80% relative humidity): convert to a different (higher) hydrate
- form conversion in aqueous suspensions ([4]; aqueous suspensions): convert into the form disclosed in WO 02/100847 as Form 2
